“Also recorded” adds a separate entry of the source.

In data set [1] the test system is pre-rRNA (POL1 transcript). The data set can be described thus: pre-rRNA transcription, real-time RT-PCR. The note with it: LN229 cells. The class given is cell-based. As for the experimental part:
SELH is localized in the nucleolus, which is a sensor of oxidative stress. Yang et al., Nature communications 7: 13599 (2016); Novoselov et al., J. Biol. Chem. 282: 11960 (2007). […] JNK2 activation by oxidative stress inactivated RNA polymerase I (POL1) transcription factor TIF1A in the nucleoli to down-regulate rRNA synthesis. Mayer et al., Genes Dev. 19: 933 (2005). To investigate whether the ribosomal biogenesis was disrupted by ISP I, pre-rRNA transcription was evaluated using real-time RT-PCR analysis in LN229 cells. […] To examine the mechanisms by which ISP I disrupts POL1 transcription, the inventors initially evaluated JNK2 activity and the overall state of the transcription machinery in ISP I-treated LN229 cells.
Background: Quantitative PCR measures a nucleic acid by following its amplification.

Data set [2] relates to meningioma cell lines IOMM, JEN, CH-157. Description: CCK8 cell viability assay, meningioma cell lines. The class given is cell-based. The following applies: 48 hours. As for the experimental part: Cell viability was measured by Cell Counting Kit-8 (CCK-8, Dojindo Molecular Technologies, Tokyo, Japan). Cells were seeded in 96-well plates at a density of 3×10^3 cells/well and cultured for 24 hours before treatment with ISP I at different concentration. After treatment for a gradient ISP I concentration from 0 to 20 μg/ml for 48 hours, while control groups were only treated in PBS solution, 10 μl of CCK-8 solution were added to each well and cells were incubated for an additional 2 hours. The absorbance in each well at a wavelength of OD450 was detected by the Synergy H1 microplate reader, a product of BioTek (Winooski, Vt. USA).
Background: Tetrazolium assays rely on reduction of a dye to a coloured formazan, in cell work by metabolically active cells.

The next data set has as its system U2OS cell line. Description: R-loop and EdU staining in U2OS cells. The class given is cell-based, Human. The following applies: 6 hours. The text has this:
In order to assess ISP I's effect within the nuclear compartment, the inventors evaluated DNA-RNA R-loop formation within ISP I-treated Human Bone Osteosarcoma Epithelial Cells (U2OS cell line). R-loops are DNA-RNA hybrid structures composed of a displaced single-stranded DNA hybridized with the nascent RNA transcript. Santo-Pereira et al., Nat. Rev. Genet. 16: 583 (2015). […] Teng et al., Nature communications 9: 4115 (2018).
U2OS cells obtained from ATCC were transfected with plasmid containing RNaseH1 construct mutated at D210N (Addgene #111904) and WKKD (Addgene #111905). Stable monoclonal cells were selected with hygromycin.
EdU and R-loop staining for U2OS cells was conducted as follows: U2OS cells were incubated with EdU for 20 min and washed with a brief PBS wash. These cells were then pre-extracted in PBS-T buffer (0.2% Triton X-100 in 1×PBS, phenylmethylsulphonylfluoride [PMSF], protease inhibitor cocktail (Sigma, P8340) and phosphatase inhibitor cocktail (Roche, P4906845001)) for 3 min on ice and washed with a brief PBS wash. Pre-extracted cells were fixed using 2.0% paraformaldehyde (PFA) solution in PBS. EdU staining was performed according to the manufacturer's instructions. Primary antibody staining was performed as follows: anti-V5-tag (Santacruz, sc-271926, 1:250 dilution). Secondary antibody staining was performed as follows: Alexa 568 conjugated anti-mouse IgG (1:500, ThermoFisher Scientific). A Zeiss LSM710 confocal microscopy was used for imaging. Images where scored in ZenBlue software by counting non-nucleolar R-loops foci, where nucleoli were masked based on intensity and size of R-loop staining and number of foci counted in the rest of the nucleus.

Data set [3] has as its system LN229 and U251 cells. Description: Cell-cycle analysis by flow cytometry (EdU and DAPI), glioblastoma cells. The class given is cell-based. As for the experimental part: (§1) To assess the cytotoxicity of ISPs I, II and III, five glioblastoma cell lines, T98G, U118, A172, LN229 and U251, were treated with serial doses of each ISP, respectively, for 48 hours. Cell viability of these cell lines were evaluated by CCK8 assay, and the 50% inhibitory concentration (IC50) was calculated (FIG. 2A, B and FIG. 3). […] Cell distribution in each phase of the cell cycle was assessed in LN229 and U251 cells by flow cytometry, followed by EdU and DAPI staining.
For monitoring cell-cycle arrest of ISP I-treated cells, Click-iT EdU Flow Cytometry Assay Kits were used, a product of ThermoFisher Scientific. Cells were co-cultured with EdU at a concentration of 10 μM for 1 hour. After fixation and permeabilization, EdU-positive cells were labeled with Alexa Fluor 647 fluorescein. DAPI also was used for measuring total DNA content to identify differences in cell cycle phases. Data were collected by means of a BD LSRFortessa flow cytometer using FlowJo software. Cells that are positive with EdU and DAPI were in S-Phase of the cell cycle.
(In general: In flow cytometry, cells or beads pass a laser one at a time.)

Data set [4] relates to LN229 and U251 cells. The data set can be described thus: Annexin V apoptosis flow cytometry, glioblastoma cells. The class given is cell-based. As for the experimental part: as §1
Cells (2×10^5) were plated in 6-well plates and treated with different concentrations of ISP I. Then the cells were harvested and washed three times with PBS. Cells were resuspended in 100 μl binding buffer and were incubated with 5 μl APC-conjugated Annexin V working solution, a product of BD bioscience (Franklin Lakes, N.J. USA), and 1 μl propidium iodide (PI), a product of Invitrogen, for 15 min at room temperature with protection from light. Data acquisition and quantification were processed with BD LSRFortessa flow cytometer, using FlowJo software (Ashland, Oreg. USA).

For a further data set, the system named is human cancer lines. The following applies: MCF-7, MDA-MB-231, HepG2, A549, H460, H1299, 786-0, 769-P, U251, A172, U937, HeLa, PC3, PANC-1, TE-1, SGC-7901, HT-29, HL-60; cited from earlier work.
In data set [5] the test system is SELH-deficient LN229 cells. Description: CCK8 assay in SELH-deficient (CRISPR/CAS9) LN229 cells. The class given is cell-based. The note with it: LN229 SELH knock out. From the text:
SELH knockout LN229 cell lines and B16 were generated using the CRISPR/Cas9 technique described by Shalem et al., Science 343: 84 (2014). The gDNA for targeting SELH was designed as follows: Oligo 1, 5′-[…]-3′; Oligo 2, 5′-[…]-3′; the gDNA for targeting mouse SELH was designed as follows: Oligo 1, 5′-[…]-3′; Oligo 2, 5′-[…]-3′, and subcloned into Cas9 carrying vector (pX330). The two resultant plasmids and puromycin-expressing vector (pPGK-puro) were co-transfected at a ratio of 1:1:1 into LN229 or B16 cells using Lipofectamine 2000 (Invitrogen). Twenty-four hours later, the transfected cells were subjected to puromycin (Sigma) at 1 μg/mL for 7 days. One week after selection, the surviving clones were expanded, followed by extraction of total protein for standard western blotting analysis.
Cell viability was measured by Cell Counting Kit-8 (CCK-8, Dojindo Molecular Technologies, Tokyo, Japan). Cells were seeded in 96-well plates at a density of 3×10^3 cells/well and cultured for 24 hours before treatment with ISP I at different concentration. […] The absorbance in each well at a wavelength of OD450 was detected by the Synergy H1 microplate reader, a product of BioTek (Winooski, Vt. USA).

Consider `COC1C(O)CC(=O)OC(C)CC=CC=CC(OC2CCC(N(C)C)C(C)O2)C(C)CC(CC=O)C1OC1OC(C)C(OC2CC(C)(O)C(OC(=O)CC(C)C)C(C)O2)C(N(C)C)C1O` (stereo not shown) [ISP I, 4″-isolvalerylspiramycin I], for which, in data set [1], the pre-rRNA transcription entry is recorded as “decreased pre-rRNA transcription in a dose-dependent manner; also recorded: reduced Pre-rRNA (PoL1 transcript) in a dose-dependent manner”. In addition, the “cytotoxic effect on meningioma cell lines” value in data set [2] was “demonstrated a cytotoxic effect”. Moreover, the “EdU incorporation (DNA replication)” value with U2OS cell line is “reduced EdU (DNA replication marker) incorporation into DNA in a dose-dependent manner”; in the data set with U2OS cell line (listed as ISP 1), “reduction in EdU incorporation”. The values for the R-loop formation entry with U2OS cell line and in the data set with U2OS cell line (listed as ISP 1) were “increased R-loop accumulation” and “increase of R-Loops formation”, respectively. In addition, the “cell distribution in cell-cycle phases” value in the data set on LN229 and U251 cells [3] was “G0/G1 arrest; also recorded: dose-dependent increase in the G0/G1 phase and a decrease in the S phase”. Further, the “apoptosis (Annexin V stain)” value in the data set on LN229 and U251 cells [4] is recorded as “induced a dose-dependent apoptosis”. Besides, in the data set with human cancer lines, the “effect on proliferation in vitro of human cancer lines” value is on record as “inhibitory effect”. Also, the “sensitivity of SELH-deficient cells vs wild type (CCK8)” value in data set [5] was “resistance to ISP I; also recorded: SELH-deficient cells were resistant to ISP I treatment”.

The values above are taken from patent US11351185B2, “Use of isovalerylspiramycins as anti-cancer agents to inhibit metastasis” (priority 2020, dated 2022).
